Source: paper PMC4774911, “Biochemical Screening of Five Protein Kinases from Plasmodium falciparum against 14,000 Cell-Active Compounds” (PLoS ONE, 2016)
Values joined by “and” are separate entries in the source; they are usually repeats but may differ in a detail not shown here. Equal entries are not always repeated.

What was measured:
Experiment in all cases: biochemical
MAP3K5 = MAP3K5 (Homo sapiens, UniProt Q99683)
ACVR2B = ACVR2B (Homo sapiens, UniProt Q13705)
DSTYK = DSTYK (Homo sapiens, UniProt Q6XUX3)
PIP4K2B = molecular target: T1, PIP4K2B (Homo sapiens, UniProt P78356)
T1 sequence (P78356 1-416): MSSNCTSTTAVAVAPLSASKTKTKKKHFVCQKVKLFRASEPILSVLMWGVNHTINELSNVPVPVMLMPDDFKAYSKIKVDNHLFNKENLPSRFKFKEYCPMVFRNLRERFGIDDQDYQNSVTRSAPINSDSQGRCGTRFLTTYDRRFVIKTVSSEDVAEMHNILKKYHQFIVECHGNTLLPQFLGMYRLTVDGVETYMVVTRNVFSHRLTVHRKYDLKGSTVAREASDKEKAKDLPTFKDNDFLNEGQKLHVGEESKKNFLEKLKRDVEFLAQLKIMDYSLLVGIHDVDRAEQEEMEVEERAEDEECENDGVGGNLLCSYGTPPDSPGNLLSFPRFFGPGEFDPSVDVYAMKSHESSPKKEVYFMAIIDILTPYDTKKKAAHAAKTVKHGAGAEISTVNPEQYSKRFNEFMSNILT

MAPK6 = MAPK6 (Homo sapiens, UniProt Q16659)
BMPR1A = BMPR1A (Homo sapiens, UniProt P36894)
JAK2 = JAK2 (Homo sapiens, UniProt O60674)
NEK6 = NEK6 (Homo sapiens, UniProt Q9HC98)
PIP4K2C = molecular target: T2, PIP4K2C (Homo sapiens, UniProt Q8TBX8)
T2 sequence (Q8TBX8 1-421): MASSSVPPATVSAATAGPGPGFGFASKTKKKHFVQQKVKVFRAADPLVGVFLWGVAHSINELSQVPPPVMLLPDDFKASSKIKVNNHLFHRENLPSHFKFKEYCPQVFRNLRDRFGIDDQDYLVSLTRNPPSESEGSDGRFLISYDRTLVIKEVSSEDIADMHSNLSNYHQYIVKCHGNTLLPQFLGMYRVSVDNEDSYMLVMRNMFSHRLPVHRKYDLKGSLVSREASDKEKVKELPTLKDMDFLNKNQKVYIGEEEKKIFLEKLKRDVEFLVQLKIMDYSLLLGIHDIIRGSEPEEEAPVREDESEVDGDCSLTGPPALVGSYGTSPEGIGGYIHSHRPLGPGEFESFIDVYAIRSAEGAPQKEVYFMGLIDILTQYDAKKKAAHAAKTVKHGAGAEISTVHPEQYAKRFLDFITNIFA

NEK3 = molecular target: T3, NEK3 (Homo sapiens, UniProt P51956)
T3 sequence (P51956 1-506): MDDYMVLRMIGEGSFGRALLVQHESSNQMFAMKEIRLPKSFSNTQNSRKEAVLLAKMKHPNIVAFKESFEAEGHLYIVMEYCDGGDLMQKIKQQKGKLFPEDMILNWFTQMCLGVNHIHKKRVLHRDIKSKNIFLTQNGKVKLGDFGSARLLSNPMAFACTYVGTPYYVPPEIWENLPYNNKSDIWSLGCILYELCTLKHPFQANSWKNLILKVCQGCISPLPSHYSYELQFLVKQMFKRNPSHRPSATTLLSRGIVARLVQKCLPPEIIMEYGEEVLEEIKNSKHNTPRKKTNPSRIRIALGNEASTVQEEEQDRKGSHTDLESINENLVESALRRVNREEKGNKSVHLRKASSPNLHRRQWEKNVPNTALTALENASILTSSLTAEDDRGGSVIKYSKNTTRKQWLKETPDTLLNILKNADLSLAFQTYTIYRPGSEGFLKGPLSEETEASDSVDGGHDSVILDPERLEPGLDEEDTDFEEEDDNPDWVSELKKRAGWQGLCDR

ULK1 = molecular target: T4, ULK1 (Homo sapiens, UniProt O75385)
T4 sequence (O75385 1-1050): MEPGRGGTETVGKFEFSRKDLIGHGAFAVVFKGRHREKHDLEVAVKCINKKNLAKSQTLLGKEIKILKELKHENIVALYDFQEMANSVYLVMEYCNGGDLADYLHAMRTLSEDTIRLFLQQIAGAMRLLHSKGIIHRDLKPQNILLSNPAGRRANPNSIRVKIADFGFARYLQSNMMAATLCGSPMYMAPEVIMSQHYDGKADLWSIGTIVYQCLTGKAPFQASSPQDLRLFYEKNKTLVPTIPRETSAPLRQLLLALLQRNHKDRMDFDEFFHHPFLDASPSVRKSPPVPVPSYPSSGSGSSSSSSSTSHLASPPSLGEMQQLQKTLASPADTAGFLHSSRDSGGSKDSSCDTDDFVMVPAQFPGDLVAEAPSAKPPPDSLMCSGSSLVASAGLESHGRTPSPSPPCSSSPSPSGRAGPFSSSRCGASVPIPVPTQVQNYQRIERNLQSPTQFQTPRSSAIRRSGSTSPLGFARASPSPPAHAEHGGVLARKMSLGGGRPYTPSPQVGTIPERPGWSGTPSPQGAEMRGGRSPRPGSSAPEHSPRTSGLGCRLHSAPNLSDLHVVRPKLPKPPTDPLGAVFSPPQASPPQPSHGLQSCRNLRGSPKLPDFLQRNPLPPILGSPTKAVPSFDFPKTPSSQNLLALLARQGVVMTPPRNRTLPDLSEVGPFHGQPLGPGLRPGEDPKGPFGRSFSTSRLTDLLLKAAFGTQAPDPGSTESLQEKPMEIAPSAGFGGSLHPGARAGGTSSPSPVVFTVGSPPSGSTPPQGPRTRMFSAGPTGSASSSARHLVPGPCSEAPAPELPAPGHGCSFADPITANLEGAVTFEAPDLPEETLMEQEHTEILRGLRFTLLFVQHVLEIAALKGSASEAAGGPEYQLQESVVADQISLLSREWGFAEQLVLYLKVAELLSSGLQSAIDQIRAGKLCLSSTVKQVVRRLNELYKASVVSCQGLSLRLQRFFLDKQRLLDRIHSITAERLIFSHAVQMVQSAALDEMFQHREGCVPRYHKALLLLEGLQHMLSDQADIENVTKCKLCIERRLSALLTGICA

JAK2, sequence (O60674 whole entry): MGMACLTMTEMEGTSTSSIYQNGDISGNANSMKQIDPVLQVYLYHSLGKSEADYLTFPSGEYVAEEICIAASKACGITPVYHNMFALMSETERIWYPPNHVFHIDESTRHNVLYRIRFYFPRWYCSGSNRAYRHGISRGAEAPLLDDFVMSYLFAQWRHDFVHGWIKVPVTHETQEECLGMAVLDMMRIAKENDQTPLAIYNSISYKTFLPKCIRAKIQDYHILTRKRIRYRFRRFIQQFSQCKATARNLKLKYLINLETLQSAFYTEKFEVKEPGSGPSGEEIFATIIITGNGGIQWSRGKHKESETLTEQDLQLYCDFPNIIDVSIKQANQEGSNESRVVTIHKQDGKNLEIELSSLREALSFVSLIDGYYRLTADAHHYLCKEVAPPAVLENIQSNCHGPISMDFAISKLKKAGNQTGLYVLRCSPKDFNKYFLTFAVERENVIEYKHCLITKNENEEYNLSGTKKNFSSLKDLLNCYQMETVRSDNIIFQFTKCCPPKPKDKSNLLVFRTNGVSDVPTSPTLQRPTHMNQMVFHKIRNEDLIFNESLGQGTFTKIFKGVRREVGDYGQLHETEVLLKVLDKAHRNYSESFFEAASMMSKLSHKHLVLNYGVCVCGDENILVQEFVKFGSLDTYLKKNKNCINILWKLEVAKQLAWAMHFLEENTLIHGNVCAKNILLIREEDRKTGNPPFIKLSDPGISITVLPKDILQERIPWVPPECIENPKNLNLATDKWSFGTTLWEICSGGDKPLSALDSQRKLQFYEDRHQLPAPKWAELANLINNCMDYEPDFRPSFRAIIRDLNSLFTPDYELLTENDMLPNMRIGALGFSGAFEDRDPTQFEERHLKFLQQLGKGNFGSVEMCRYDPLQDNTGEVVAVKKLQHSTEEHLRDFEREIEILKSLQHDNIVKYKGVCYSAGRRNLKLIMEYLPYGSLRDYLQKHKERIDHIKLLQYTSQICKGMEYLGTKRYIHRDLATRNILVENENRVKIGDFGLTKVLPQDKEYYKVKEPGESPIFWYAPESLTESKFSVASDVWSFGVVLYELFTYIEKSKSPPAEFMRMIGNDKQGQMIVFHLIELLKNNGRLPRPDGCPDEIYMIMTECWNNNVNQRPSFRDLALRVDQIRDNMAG
MAPK6, sequence (Q16659 whole entry): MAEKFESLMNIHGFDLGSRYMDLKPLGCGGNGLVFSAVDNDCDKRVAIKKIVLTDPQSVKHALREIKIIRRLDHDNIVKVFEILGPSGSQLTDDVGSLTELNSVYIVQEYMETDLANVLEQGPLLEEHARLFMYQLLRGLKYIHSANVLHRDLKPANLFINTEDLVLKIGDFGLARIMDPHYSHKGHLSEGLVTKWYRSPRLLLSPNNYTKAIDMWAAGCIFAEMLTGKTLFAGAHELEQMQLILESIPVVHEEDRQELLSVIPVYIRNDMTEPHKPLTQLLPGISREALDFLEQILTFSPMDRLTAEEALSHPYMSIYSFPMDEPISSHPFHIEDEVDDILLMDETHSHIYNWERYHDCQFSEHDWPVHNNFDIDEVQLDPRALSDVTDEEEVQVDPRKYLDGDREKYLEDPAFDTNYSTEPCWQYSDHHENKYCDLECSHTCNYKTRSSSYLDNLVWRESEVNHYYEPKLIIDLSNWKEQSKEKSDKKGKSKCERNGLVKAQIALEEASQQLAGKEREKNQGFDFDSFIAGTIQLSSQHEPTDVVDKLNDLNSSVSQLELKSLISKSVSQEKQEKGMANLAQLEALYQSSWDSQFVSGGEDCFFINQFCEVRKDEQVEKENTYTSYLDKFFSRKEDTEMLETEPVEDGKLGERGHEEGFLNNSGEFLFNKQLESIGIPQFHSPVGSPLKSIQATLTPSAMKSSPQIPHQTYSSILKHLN
DSTYK, sequence (Q6XUX3 whole entry): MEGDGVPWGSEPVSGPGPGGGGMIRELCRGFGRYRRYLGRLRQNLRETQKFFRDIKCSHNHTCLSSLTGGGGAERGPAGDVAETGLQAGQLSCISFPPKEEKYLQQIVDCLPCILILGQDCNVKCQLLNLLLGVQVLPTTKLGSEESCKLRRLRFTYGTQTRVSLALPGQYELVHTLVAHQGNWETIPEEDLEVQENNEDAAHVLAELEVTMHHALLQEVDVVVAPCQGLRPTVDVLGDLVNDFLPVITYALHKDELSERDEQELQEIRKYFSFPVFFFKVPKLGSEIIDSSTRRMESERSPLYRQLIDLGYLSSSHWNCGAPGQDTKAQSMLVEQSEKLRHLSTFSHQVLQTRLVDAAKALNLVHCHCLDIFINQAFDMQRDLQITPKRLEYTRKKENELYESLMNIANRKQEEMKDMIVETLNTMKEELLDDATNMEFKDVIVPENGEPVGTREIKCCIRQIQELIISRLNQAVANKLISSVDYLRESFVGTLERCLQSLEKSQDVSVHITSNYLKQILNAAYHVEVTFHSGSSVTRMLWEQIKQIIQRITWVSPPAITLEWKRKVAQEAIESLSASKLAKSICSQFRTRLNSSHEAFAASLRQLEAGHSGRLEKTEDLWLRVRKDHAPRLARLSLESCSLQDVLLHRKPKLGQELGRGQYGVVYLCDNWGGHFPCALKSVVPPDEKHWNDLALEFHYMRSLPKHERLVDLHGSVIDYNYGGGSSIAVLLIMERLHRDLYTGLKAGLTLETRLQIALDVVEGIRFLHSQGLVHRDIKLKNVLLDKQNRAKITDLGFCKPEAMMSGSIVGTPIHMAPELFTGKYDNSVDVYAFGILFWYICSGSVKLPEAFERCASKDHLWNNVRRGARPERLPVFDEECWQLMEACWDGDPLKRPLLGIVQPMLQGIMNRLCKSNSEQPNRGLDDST
BMPR1A, sequence (P36894 whole entry): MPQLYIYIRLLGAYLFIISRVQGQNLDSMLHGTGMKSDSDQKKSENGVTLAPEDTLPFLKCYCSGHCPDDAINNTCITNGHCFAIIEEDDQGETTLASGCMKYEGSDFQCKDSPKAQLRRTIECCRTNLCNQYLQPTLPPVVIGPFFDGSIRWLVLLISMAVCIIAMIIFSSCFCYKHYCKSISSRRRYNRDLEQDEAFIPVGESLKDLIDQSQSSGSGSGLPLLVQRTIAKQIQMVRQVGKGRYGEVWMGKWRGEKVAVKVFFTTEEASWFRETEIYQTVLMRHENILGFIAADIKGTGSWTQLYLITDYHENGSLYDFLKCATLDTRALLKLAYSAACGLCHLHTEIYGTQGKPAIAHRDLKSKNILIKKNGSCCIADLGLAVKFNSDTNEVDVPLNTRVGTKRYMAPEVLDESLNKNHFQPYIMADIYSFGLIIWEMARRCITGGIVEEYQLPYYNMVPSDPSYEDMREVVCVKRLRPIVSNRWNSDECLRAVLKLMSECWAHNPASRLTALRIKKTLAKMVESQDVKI
NEK6, sequence (Q9HC98 whole entry): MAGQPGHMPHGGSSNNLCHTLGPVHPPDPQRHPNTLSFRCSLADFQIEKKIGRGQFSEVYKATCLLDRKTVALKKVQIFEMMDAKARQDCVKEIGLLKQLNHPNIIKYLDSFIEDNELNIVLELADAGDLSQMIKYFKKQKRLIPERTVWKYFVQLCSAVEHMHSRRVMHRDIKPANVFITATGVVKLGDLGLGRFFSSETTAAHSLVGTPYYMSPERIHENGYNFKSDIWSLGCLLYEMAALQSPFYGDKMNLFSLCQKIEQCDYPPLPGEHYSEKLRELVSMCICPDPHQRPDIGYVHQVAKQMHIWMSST
MAP3K5, sequence (Q99683 whole entry): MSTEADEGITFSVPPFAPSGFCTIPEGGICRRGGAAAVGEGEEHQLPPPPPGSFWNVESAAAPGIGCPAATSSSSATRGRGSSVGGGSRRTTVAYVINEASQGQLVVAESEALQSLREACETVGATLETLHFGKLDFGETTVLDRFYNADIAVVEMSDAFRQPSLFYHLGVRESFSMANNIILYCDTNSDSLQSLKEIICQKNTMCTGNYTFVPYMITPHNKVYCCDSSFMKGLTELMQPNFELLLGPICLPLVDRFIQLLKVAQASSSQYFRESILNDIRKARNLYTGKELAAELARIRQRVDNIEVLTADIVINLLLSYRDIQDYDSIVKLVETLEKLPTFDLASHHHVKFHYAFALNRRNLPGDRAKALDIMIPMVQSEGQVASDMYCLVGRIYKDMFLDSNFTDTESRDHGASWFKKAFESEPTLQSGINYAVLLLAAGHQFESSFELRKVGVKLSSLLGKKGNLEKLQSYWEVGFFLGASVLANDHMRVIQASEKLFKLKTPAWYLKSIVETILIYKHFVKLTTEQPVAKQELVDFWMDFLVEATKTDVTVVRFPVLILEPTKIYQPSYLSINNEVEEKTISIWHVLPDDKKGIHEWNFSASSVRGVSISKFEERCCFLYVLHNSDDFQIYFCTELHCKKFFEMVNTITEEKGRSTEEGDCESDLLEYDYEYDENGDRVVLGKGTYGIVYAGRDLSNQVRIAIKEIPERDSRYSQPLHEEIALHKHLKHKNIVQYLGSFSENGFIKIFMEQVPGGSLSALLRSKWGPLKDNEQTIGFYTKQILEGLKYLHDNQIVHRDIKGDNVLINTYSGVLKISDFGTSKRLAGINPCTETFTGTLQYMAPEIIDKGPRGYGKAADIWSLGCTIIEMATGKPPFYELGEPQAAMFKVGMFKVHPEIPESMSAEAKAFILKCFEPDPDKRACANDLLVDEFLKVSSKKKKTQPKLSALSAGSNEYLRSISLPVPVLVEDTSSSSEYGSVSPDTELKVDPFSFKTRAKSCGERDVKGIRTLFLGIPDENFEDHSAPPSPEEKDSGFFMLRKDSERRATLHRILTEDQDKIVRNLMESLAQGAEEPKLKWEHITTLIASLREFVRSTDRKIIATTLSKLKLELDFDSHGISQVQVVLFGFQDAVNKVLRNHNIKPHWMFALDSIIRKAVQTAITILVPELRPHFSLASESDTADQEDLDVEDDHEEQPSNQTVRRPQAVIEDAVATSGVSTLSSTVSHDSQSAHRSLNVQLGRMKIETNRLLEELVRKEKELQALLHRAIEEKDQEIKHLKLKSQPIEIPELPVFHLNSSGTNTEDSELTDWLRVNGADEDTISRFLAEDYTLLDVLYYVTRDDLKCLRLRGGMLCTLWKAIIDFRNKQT

Compound | IC50 (MAP3K5) [µM] | IC50 (ACVR2B) [µM] | IC50 (DSTYK) [µM] | IC50 (PIP4K2B) | IC50 (MAPK6) [nM] | IC50 (BMPR1A) [µM] | IC50 (JAK2) | IC50 (NEK6) [nM] | IC50 (PIP4K2C) | IC50 (NEK3) [nM] | IC50 (ULK1) [nM]
CN(C)CC(O)COc1ccc(Nc2ncc([N+](=O)[O-])c(Nc3ccccc3O)n2)cc1.O=C(O)C(F)(F)F (stereo not shown) [TCMDC-141399] | > 20 | > 20 | > 20 | 970 nM | 320 | > 20 | – | – | – | – | –
Cl.NCC1(c2nc(-c3ccc(Cl)c(O)c3)c(-c3ccncc3)[nH]2)CCCCC1 [TCMDC-141154] | > 20 | – | > 20 | – | > 20000 | > 20 | > 20000 nM | > 20000 | > 20000 nM | > 20000 | > 20000
CN1CCN(c2ccc(Nc3ncc(C#N)c(Nc4ccccc4C(N)=O)n3)cc2)CC1.Cl [TCMDC-134116] | – | > 20 | – | 1600 nM and 1000 nM | – | – | 510 nM and 330 nM | 260 | 970 nM and 1000 nM | 1100 | 160
